Results published in ChEMBL document CHEMBL1201862, “PubChem BioAssay data set” (2004).
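In this assay, cells in 96-well plates receive the compound at five concentrations for 48 hours. Endpoints are linearly interpolated between the surrounding concentrations. At the GI50, growth is halved.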 Activity calls are given as the source filed them. No stated cut-off is given here; in the data, active = GI50 up to about 1.1 µM and inactive = higher.

Assays:
Assay in all cases: NCI-60 cell line screen, 48 h
SF-295 = system: SF-295
U-251 = system: U-251
MDA-N = system: MDA-N
PC-3 = system: PC-3
A549 = system: A549
SK-OV-3 = system: SK-OV-3
SNB-19 = system: SNB-19
SR = system: SR
T47D = system: T47D
DU-145 = system: DU-145
A498 = system: A498
786-0 = system: 786-0
EKVX = system: EKVX
SF-539 = system: SF-539
SN12C = system: SN12C
LOX IMVI = system: LOX IMVI
IGROV-1 = system: IGROV-1
SK-MEL-28 = system: SK-MEL-28
SK-MEL-2 = system: SK-MEL-2
Malme-3M = system: Malme-3M

SMILES | GI50 (SF-295) | GI50 (U-251) | GI50 (MDA-N) | GI50 (PC-3) | GI50 (A549) | GI50 (SK-OV-3) | GI50 (SNB-19) | GI50 (SR) | GI50 (T47D) | GI50 (DU-145) | GI50 (A498) | GI50 (786-0) | GI50 (EKVX) | GI50 (SF-539) | GI50 (SN12C) | GI50 (LOX IMVI) | GI50 (IGROV-1) | GI50 (SK-MEL-28) | GI50 (SK-MEL-2) | GI50 (Malme-3M)
CC(C)CCC1(CCN)C(=O)NC(=O)NC1=O | > 100 µM (inactive) | > 100 µM (inactive) | > 100 µM (inactive) | > 100 µM (inactive) | > 100 µM (inactive) | > 100 µM (inactive) | > 100 µM (inactive) | 6.68 µM (inactive) | > 100 µM (inactive) | > 100 µM (inactive) | > 100 µM (inactive) | > 100 µM (inactive) | > 100 µM (inactive) | > 100 µM (inactive) | > 100 µM (inactive) | > 100 µM (inactive) | > 100 µM (inactive) | > 100 µM (inactive) | > 100 µM (inactive) | > 100 µM (inactive)
Cc1cc(C)c2c(O)cc(-c3cccc(F)c3)nc2n1 | 0.0348 µM (active) | 0.0724 µM (active) | 0.0116 µM (active) | 0.0718 µM (active) | 0.0847 µM (active) | 0.158 µM (active) | 0.136 µM (active) | 0.0169 µM (active) | 0.232 µM (active) | 0.215 µM (active) | 0.274 µM (active) | 0.177 µM (active) | 0.45 µM (active) | 0.0944 µM (active) | 0.299 µM (active) | 0.191 µM (active) | 0.0766 µM (active) | 0.115 µM (active) | 0.098 µM (active) | 0.0614 µM (active)
O=C1OC(OC/C(Br)=C(\Br)COC2OC(=O)C(Cl)=C2Cl)C(Cl)=C1Cl (centres undefined) | 18.3 µM (inactive) | 4.58 µM (inactive) | 3.65 µM (inactive) | 14.1 µM (inactive) | 14.9 µM (inactive) | 22.2 µM (inactive) | 17.1 µM (inactive) | 0.9 µM (active) | 12.6 µM (inactive) | 15.1 µM (inactive) | 19.5 µM (inactive) | 2.51 µM (inactive) | 9.57 µM (inactive) | 6.89 µM (inactive) | 5.64 µM (inactive) | 2.58 µM (inactive) | 12.3 µM (inactive) | 7.82 µM (inactive) | 19.5 µM (inactive) | 2.55 µM (inactive)
COc1ccc(-c2cc(-c3ccc(Nc4ccnc5cc(Cl)ccc45)cc3)[nH]c(=O)c2C#N)c2ccccc12 | 17.7 µM (inactive) | 1.87 µM (inactive) | 2.01 µM (inactive) | 19.5 µM (inactive) | 18.1 µM (inactive) | 20.9 µM (inactive) | 3.39 µM (inactive) | 0.413 µM (active) | 1.88 µM (inactive) | 5.33 µM (inactive) | 23.3 µM (inactive) | 3.4 µM (inactive) | > 77.1 µM (inactive) | 1.82 µM (inactive) | 11.4 µM (inactive) | 1.36 µM (inactive) | 5.26 µM (inactive) | 3.34 µM (inactive) | 14.1 µM (inactive) | 2.23 µM (inactive)
CC1=CC(=O)C(C(O)(C(F)(F)F)C(F)(F)F)C(C)(C)C1 (centres undefined) | > 10 µM (inactive) | > 10 µM (inactive) | > 10 µM (inactive) | > 10 µM (inactive) | > 10 µM (inactive) | > 10 µM (inactive) | > 10 µM (inactive) | > 10 µM (inactive) | > 10 µM (inactive) | > 10 µM (inactive) | > 10 µM (inactive) | > 10 µM (inactive) | > 10 µM (inactive) | > 10 µM (inactive) | > 10 µM (inactive) | > 10 µM (inactive) | > 10 µM (inactive) | > 10 µM (inactive) | > 10 µM (inactive) | > 10 µM (inactive)
CCC1C(c2cc(OC)c(OC)c(OC)c2)c2cc3c(cc2OC1N1CCCC1)OCO3 (centres undefined) | 1.07 µM (active) | 2.56 µM (inactive) | 0.231 µM (active) | 1.48 µM (inactive) | 2.76 µM (inactive) | 3.42 µM (inactive) | 2.74 µM (inactive) | 1.17 µM (inactive) | 3.78 µM (inactive) | 2.37 µM (inactive) | 3.15 µM (inactive) | 3.07 µM (inactive) | 7.28 µM (inactive) | 1.39 µM (inactive) | 4.36 µM (inactive) | 2.57 µM (inactive) | 2.62 µM (inactive) | 8.87 µM (inactive) | 1.98 µM (inactive) | 6.98 µM (inactive)
OC(Cc1cnnc2ccccc12)C(Cl)(Cl)Cl (centres undefined) | > 10 µM (inactive) | > 10 µM (inactive) | > 10 µM (inactive) | > 10 µM (inactive) | > 10 µM (inactive) | > 10 µM (inactive) | > 10 µM (inactive) | > 10 µM (inactive) | > 10 µM (inactive) | > 10 µM (inactive) | > 10 µM (inactive) | > 10 µM (inactive) | > 10 µM (inactive) | > 10 µM (inactive) | > 10 µM (inactive) | > 10 µM (inactive) | > 10 µM (inactive) | > 10 µM (inactive) | > 10 µM (inactive) | > 10 µM (inactive)
CCN1CCN(c2nc3ccccc3nc2C(=O)c2ccc(OC)cc2)CC1 | 32.7 µM (inactive) | 39.4 µM (inactive) | 32.1 µM (inactive) | 78 µM (inactive) | 23.8 µM (inactive) | > 100 µM (inactive) | 90.2 µM (inactive) | 11.7 µM (inactive) | > 100 µM (inactive) | > 100 µM (inactive) | 37.1 µM (inactive) | 19.4 µM (inactive) | 47.1 µM (inactive) | 26.4 µM (inactive) |  | 24.8 µM (inactive) | 75.9 µM (inactive) | 36 µM (inactive) | 41 µM (inactive) | 16.5 µM (inactive)
Nc1ccc(CCN2CCN(CCCc3ccccc3)CC2)cc1 | > 100 µM (inactive) | > 100 µM (inactive) | > 100 µM (inactive) | > 100 µM (inactive) | > 100 µM (inactive) | > 100 µM (inactive) | > 100 µM (inactive) | 27.6 µM (inactive) | 14.7 µM (inactive) | 70.3 µM (inactive) | > 100 µM (inactive) | 44.3 µM (inactive) | > 100 µM (inactive) | 80.5 µM (inactive) | > 100 µM (inactive) | 63.7 µM (inactive) | 98.6 µM (inactive) | > 100 µM (inactive) | > 100 µM (inactive) | 38.5 µM (inactive)
CCOC(=O)N1CCC2(CC1)C[C@](Sc1ccccc1)(C(C)=O)[C@H](C)O2 | > 100 µM (inactive) | > 100 µM (inactive) | 53.5 µM (inactive) | > 100 µM (inactive) | > 100 µM (inactive) | > 100 µM (inactive) | > 100 µM (inactive) | > 100 µM (inactive) | > 100 µM (inactive) | > 100 µM (inactive) | > 100 µM (inactive) | > 100 µM (inactive) | > 100 µM (inactive) | > 100 µM (inactive) |  | > 100 µM (inactive) | > 100 µM (inactive) | > 100 µM (inactive) | > 100 µM (inactive) | > 100 µM (inactive)
COc1ccc(/C=C2\OC(=O)C(Cl)=C2c2ccc(OC)c(Cl)c2)cc1 | 25.5 µM (inactive) | 29.4 µM (inactive) | 17.7 µM (inactive) | 30.8 µM (inactive) | 24.4 µM (inactive) | 33.9 µM (inactive) | 34.1 µM (inactive) | 29 µM (inactive) | 32.1 µM (inactive) | 36.3 µM (inactive) | 17.7 µM (inactive) | 15.4 µM (inactive) | 18.3 µM (inactive) | 15.2 µM (inactive) |  | 32.1 µM (inactive) | 32 µM (inactive) | 35.7 µM (inactive) | 49.8 µM (inactive) | 25.3 µM (inactive)
O=C(Nc1ccc(Cl)cc1)Oc1ccc(C(=S)Nc2ccc(Br)cc2)cc1 | 0.438 µM (active) | 20.5 µM (inactive) | 16.7 µM (inactive) | 21.1 µM (inactive) | 10 µM (inactive) | 26.5 µM (inactive) | 34.4 µM (inactive) | 5.06 µM (inactive) | 10.5 µM (inactive) | 25.8 µM (inactive) | 19.1 µM (inactive) | 16 µM (inactive) | 2.49 µM (inactive) | 15.5 µM (inactive) |  | 0.334 µM (active) | 2.05 µM (inactive) | 10.4 µM (inactive) | 6.62 µM (inactive) | 20.2 µM (inactive)
COc1ccc(C[N+]23C(CC[C@H]2c2ccccc2)CC[C@H]3c2ccccc2)cc1 (some centres undefined) | 26.1 µM (inactive) | 18.6 µM (inactive) | 13.2 µM (inactive) | 20 µM (inactive) | 31.3 µM (inactive) | 29.5 µM (inactive) | 27.2 µM (inactive) | 15.7 µM (inactive) | 4.56 µM (inactive) | 23.8 µM (inactive) | 39.7 µM (inactive) | 39.4 µM (inactive) | 15.4 µM (inactive) |  | 36.9 µM (inactive) | 16.6 µM (inactive) | 10.9 µM (inactive) | 20.3 µM (inactive) | 18.5 µM (inactive) | 11.4 µM (inactive)
COc1cccc(N2C(=O)CS(=O)(=O)C2c2cccc(Oc3ccccc3)c2)c1 (centres undefined) | 16 µM (inactive) | 16.7 µM (inactive) | 2.38 µM (inactive) | 9.98 µM (inactive) | 26.7 µM (inactive) | 38 µM (inactive) | 27.1 µM (inactive) | 3.13 µM (inactive) | 19.1 µM (inactive) | 38.5 µM (inactive) | 10.1 µM (inactive) | 16.9 µM (inactive) | 17 µM (inactive) | 15.1 µM (inactive) | 17.6 µM (inactive) | 17.1 µM (inactive) |  | 34 µM (inactive) | 14.2 µM (inactive) | 15.9 µM (inactive)
